Columns and labels:
Assay in all cases: relative viability (nuclei count vs DMSO), 5 days (fraction); higher = more cells survive
ALW-II-49-7 + Tozasertib = compound: Cc1ccc(C(=O)Nc2cccc(C(F)(F)F)c2)cc1Nc1cncc(C(N)=O)c1 [ALW-II-49-7] + Cc1cc(Nc2cc(N3CCN(C)CC3)nc(Sc3ccc(NC(=O)C4CC4)cc3)n2)n[nH]1 [Tozasertib] (partner 0.1 µM)
Outline: (§1)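 The day after seeding in 1536-well plates, lung cancer cell lines were treated by pin tool with a single drug, or with a fixed anchor-drug dose together with five library-drug doses (not always all listed) in √10 steps. After 5 days, a combined fix-and-stain solution (final 0.05% Triton X-100, 1% formaldehyde, 1 ug/ml Hoechst) was added. Nuclei counted on 4× images gave relative viability as treated counts over vehicle counts, reported as the median of duplicate plates.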

XMD13-2 + Decitabine = compound: C1CC1C(=O)NC2=NNC3=C2C=CC(=C3)C4=CC(=CC=C4)C(=O)NC5CC5 [XMD13-2] + Nc1ncn([C@H]2C[C@H](O)[C@@H](CO)O2)c(=O)n1 [Decitabine] (partner 2 µM)
Outline: as §1

Dasatinib + Alpelisib = compound: Cc1nc(Nc2ncc(C(=O)Nc3c(C)cccc3Cl)s2)cc(N2CCN(CCO)CC2)n1 [Dasatinib] + Cc1nc(NC(=O)N2CCC[C@H]2C(N)=O)sc1-c1ccnc(C(C)(C)C(F)(F)F)c1 [Alpelisib] (partner 2 µM)
Outline: as §1

XMD13-2 + Olaparib = compound: C1CC1C(=O)NC2=NNC3=C2C=CC(=C3)C4=CC(=CC=C4)C(=O)NC5CC5 [XMD13-2] + O=C(c1cc(Cc2n[nH]c(=O)c3ccccc23)ccc1F)N1CCN(C(=O)C2CC2)CC1 [Olaparib] (partner 8 µM)
Outline: as §1

Cell Line | relative viability (ALW-II-49-7 + Tozasertib; first compound 0.08 µM) | relative viability (ALW-II-49-7 + Tozasertib; first compound 0.253 µM) | relative viability (ALW-II-49-7 + Tozasertib; first compound 0.8 µM) | relative viability (ALW-II-49-7 + Tozasertib; first compound 2.53 µM) | relative viability (ALW-II-49-7 + Tozasertib; first compound 8 µM) | relative viability (XMD13-2 + Decitabine; first compound 0.05 µM) | relative viability (XMD13-2 + Decitabine; first compound 0.1581 µM) | relative viability (XMD13-2 + Decitabine; first compound 0.5 µM) | relative viability (XMD13-2 + Decitabine; first compound 1.581 µM) | relative viability (XMD13-2 + Decitabine; first compound 5 µM) | relative viability (Dasatinib + Alpelisib; first compound 0.005 µM) | relative viability (Dasatinib + Alpelisib; first compound 0.01581 µM) | relative viability (Dasatinib + Alpelisib; first compound 0.05 µM) | relative viability (Dasatinib + Alpelisib; first compound 0.1581 µM) | relative viability (Dasatinib + Alpelisib; first compound 0.5 µM) | relative viability (XMD13-2 + Olaparib; first compound 0.05 µM) | relative viability (XMD13-2 + Olaparib; first compound 0.1581 µM) | relative viability (XMD13-2 + Olaparib; first compound 0.5 µM) | relative viability (XMD13-2 + Olaparib; first compound 1.581 µM) | relative viability (XMD13-2 + Olaparib; first compound 5 µM)
NCI-H650 | 0.719 | 0.737 | 0.673 | 0.577 | 0.481 | 0.311 | 0.315 | 0.329 | 0.296 | 0.306 | 1.16 | 1.05 | 1.04 | 0.726 | 0.428 | 0.379 | 0.379 | 0.424 | 0.462 | 0.356
NCI-H661 | 0.388 | 0.369 | 0.341 | 0.362 | 0.337 | 0.611 | 0.56 | 0.56 | 0.537 | 0.461 | 0.538 | 0.584 | 0.424 | 0.271 | 0.254 | 0.728 | 0.671 | 0.739 | 0.767 | 0.66
NCI-H727 | 0.599 | 0.647 | 0.642 | 0.687 | 0.538 | 1.02 | 0.783 | 0.914 | 0.841 | 1 | 0.453 | 0.375 | 0.397 | 0.219 | 0.234 | 0.679 | 0.711 | 0.683 | 0.74 | 0.647
NCI-H838 | 0.245 | 0.274 | 0.264 | 0.259 | 0.265 | 0.386 | 0.414 | 0.477 | 0.436 | 0.387 | 0.82 | 0.678 | 0.585 | 0.308 | 0.233 | 0.865 | 0.749 | 0.817 | 0.774 | 0.699
NCI-H1355 | 0.523 | 0.519 | 0.445 | 0.404 | 0.434 | 0.358 | 0.385 | 0.386 | 0.379 | 0.375 | 0.674 | 0.621 | 0.652 | 0.53 | 0.297 | 0.755 | 0.716 | 0.807 | 0.762 | 0.773
NCI-H1395 | 0.746 | 0.825 | 0.736 | 0.779 | 0.631 | 0.845 | 0.738 | 0.753 | 0.661 | 0.706 | 0.896 | 0.926 | 0.947 | 0.544 | 0.519 | 0.48 | 0.493 | 0.46 | 0.477 | 0.504
NCI-H1437 | 0.35 | 0.387 | 0.383 | 0.41 | 0.391 | 0.604 | 0.569 | 0.541 | 0.55 | 0.578 | 1.03 | 0.893 | 1.03 | 0.735 | 0.513 | 0.61 | 0.617 | 0.64 | 0.64 | 0.634
NCI-H1651 | 0.608 | 0.852 | 0.543 | 0.566 | 0.377 | 0.642 | 0.642 | 0.63 | 0.609 | 0.81 | 0.899 | 0.853 | 0.66 | 0.544 | 0.619 | 0.174 | 0.206 | 0.19 | 0.184 | 0.188
NCI-H1666 | 0.609 | 0.603 | 0.569 | 0.612 | 0.498 | 0.738 | 0.734 | 0.689 | 0.666 | 0.735 | 0.964 | 0.855 | 0.844 | 0.563 | 0.31 | 0.752 | 0.736 | 0.793 | 0.742 | 0.777
NCI-H1734 | 0.263 | 0.278 | 0.255 | 0.24 | 0.232 | 0.529 | 0.484 | 0.561 | 0.487 | 0.528 | 0.553 | 0.477 | 0.469 | 0.346 | 0.278 | 0.769 | 0.628 | 0.616 | 0.594 | 0.523
NCI-H1755 | 0.654 | 0.558 | 0.463 | 0.483 | 0.466 | 0.703 | 0.719 | 0.665 | 0.736 | 0.667 | 0.775 | 0.602 | 0.437 | 0.275 | 0.137 | 0.878 | 0.892 | 0.94 | 0.91 | 0.84
NCI-H1793 | 0.366 | 0.301 | 0.338 | 0.296 | 0.321 | 0.517 | 0.481 | 0.581 | 0.431 | 0.507 | 0.554 | 0.45 | 0.545 | 0.512 | 0.443 | 1.23 | 0.812 | 0.95 | 0.927 | 0.983
NCI-H1915 | 0.398 | 0.457 | 0.42 | 0.341 | 0.277 | 0.261 | 0.268 | 0.251 | 0.256 | 0.268 | 1.01 | 0.979 | 0.933 | 0.395 | 0.311 | 0.273 | 0.253 | 0.287 | 0.254 | 0.269
NCI-H1944 | 0.234 | 0.249 | 0.251 | 0.246 | 0.254 | 0.438 | 0.436 | 0.493 | 0.474 | 0.482 | 0.781 | 0.725 | 0.575 | 0.289 | 0.203 | 0.454 | 0.402 | 0.408 | 0.55 | 0.414
NCI-H1975 | 0.743 | 1.05 | 0.667 | 0.508 | 0.243 | 0.373 | 0.381 | 0.412 | 0.414 | 0.333 | 0.579 | 0.437 | 0.361 | 0.21 | 0.199 | 0.89 | 0.798 | 0.828 | 0.871 | 0.792
